# Experimental data as given in PubChem BioAssay (NCI).
#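 Grown in 96-well plates, cells were treated for 48 hours with each compound at five concentrations. Insufficient inhibition: endpoint recorded as highest concentration tested. TGI denotes the concentration required for complete inhibition of growth.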
# Experiments:
# Experiment in all cases: growth of human tumour cells (NCI), 48 h
# [1] = test system: SR leukemia
# [2] = test system: NCI-H522 lung
# [3] = test system: SN12C renal
# [4] = test system: T-47D breast
# [5] = test system: UO-31 renal
# [6] = test system: MOLT-4 leukemia
# [7] = test system: DU-145 prostate
# [8] = test system: SNB-75 CNS
# [9] = test system: LOX IMVI melanoma
# [10] = test system: COLO 205 colon
SMILES,TGI [1],TGI [2],TGI [3],TGI [4],TGI [5],TGI [6],TGI [7],TGI [8],TGI [9],TGI [10]
CSc1c(C#N)c2n(c3ccccc13)c1ccccc1[n+]2C,> 100 µM,31.5 µM,53.1 µM,> 100 µM,64.9 µM,38.6 µM,92.6 µM,> 100 µM,> 100 µM,38.6 µM
CSc1cc(N)ccc1N=Nc1ccc(S(N)(=O)=O)cc1,> 100 µM,43.7 µM,> 100 µM,58.3 µM,56.1 µM,> 100 µM,> 100 µM,59.8 µM,> 100 µM,71.3 µM
Cn1c2ccccc2c2c3c(c4c5ccccc5n(C)c4c21)C(=O)c1ccccc1C3=O,40.2 µM,68.2 µM,> 100 µM,> 100 µM,> 100 µM,> 100 µM,> 100 µM,> 100 µM,> 100 µM,> 100 µM
COc1cc(S(=O)(=O)Nc2ccc(-c3csc(N4C(=O)CSC4c4ccccc4)n3)cc2)ccc1Cl (stereo not given),> 100 µM,> 100 µM,> 100 µM,44.7 µM,> 100 µM,> 100 µM,> 100 µM,> 100 µM,> 100 µM,> 100 µM
CC1(COS(=O)(=O)OCC2(C)COS(=O)(=O)OC2)COS(=O)(=O)OC1,> 56.9 µM,> 100 µM,> 32.1 µM,> 100 µM,> 100 µM,> 81.5 µM,> 88.6 µM,> 100 µM,> 77.9 µM,> 100 µM
[N-]=[N+]=Nc1ccc(CNc2cc(=O)[nH]c(=O)[nH]2)cc1,> 100 µM,> 100 µM,> 100 µM,> 100 µM,> 100 µM,> 100 µM,> 100 µM,> 100 µM,> 100 µM,> 100 µM
COc1ccc2nc3cc(Cl)ccc3c(NCCNCCCNC(=O)c3cc(-c4ccccc4)nc4ccccc34)c2c1,> 100 µM,> 100 µM,> 100 µM,> 100 µM,> 100 µM,> 100 µM,> 100 µM,> 100 µM,> 100 µM,> 100 µM
COc1cc(C2SCC(=O)N2c2ccc(Oc3ccc(Cl)cc3)c(Cl)c2)cc(OC)c1OC (stereo not given),> 100 µM,37.1 µM,56.2 µM,27.5 µM,91.3 µM,> 100 µM,27.3 µM,31.3 µM,36.8 µM,36.6 µM
COc1ccc(C2C(C#N)=C(S)N(C3OC(CO)C(O)C(O)C3O)C(c3ccccc3)=C2C(C)=O)cc1 (stereo not given),> 100 µM,88.9 µM,> 100 µM,69.9 µM,> 100 µM,> 100 µM,> 100 µM,97 µM,> 100 µM,> 100 µM
COc1c(C)c(OC)c2c(c1O)[C@@H]1[C@@H]3Cc4c(OC)c(C)c(OC)c(O)c4[C@H](CNC(=O)c4cnc5ccccc5n4)N3[C@@H](C#N)[C@H](C2)N1C,0.0014 µM,0.00516 µM,> 0.0718 µM,0.00676 µM,> 0.0423 µM,0.00262 µM,> 0.0206 µM,0.00552 µM,> 0.0273 µM,0.0114 µM
NC(N)=NS(=O)(=O)c1ccc(NC(=O)c2ccc3nc4ccccc4c(Nc4ccc(S(N)(=O)=O)cc4)c3c2)cc1,> 100 µM,> 100 µM,> 100 µM,> 100 µM,> 100 µM,> 100 µM,> 100 µM,> 100 µM,> 100 µM,> 100 µM
Cc1cc(=O)oc2cc(O)ccc12,> 100 µM,> 100 µM,> 100 µM,> 100 µM,> 100 µM,> 100 µM,> 100 µM,> 100 µM,> 100 µM,> 100 µM
Cc1ccc(-c2n[nH]c(=O)[nH]2)cc1[N+](=O)[O-],> 100 µM,> 100 µM,> 100 µM,> 100 µM,> 100 µM,> 100 µM,> 100 µM,> 100 µM,> 100 µM,> 100 µM
NNC(=S)N1CCN(C(=S)NN)CC1,> 100 µM,> 100 µM,> 100 µM,> 100 µM,> 100 µM,> 100 µM,> 100 µM,> 100 µM,> 100 µM,> 100 µM
O=c1oc2ccc(Cl)cc2cc1-c1cn2cc(Cl)ccc2n1,> 100 µM,11.2 µM,> 100 µM,> 100 µM,> 100 µM,> 100 µM,> 100 µM,> 100 µM,> 100 µM,> 100 µM
CC(C)N(C)C(=O)C12C3C4C1C1C2C3C41C#N (stereo not given),> 100 µM,> 100 µM,> 100 µM,> 100 µM,> 100 µM,> 100 µM,> 100 µM,> 100 µM,> 100 µM,> 100 µM
C[N+](C)(C)c1ncnc2c1ncn2C1CCCCO1 (stereo not given),> 100 µM,> 100 µM,> 100 µM,> 100 µM,> 100 µM,> 100 µM,> 100 µM,> 100 µM,> 100 µM,> 100 µM
COC(=O)[C@@H]1C[C@@]2(C3C=CN(C(=O)C(F)(F)F)C=C3)c3ccccc3N(C(=O)C(F)(F)F)[C@H]2N1C(=O)OC,> 100 µM,> 100 µM,> 100 µM,> 100 µM,> 100 µM,> 100 µM,> 100 µM,> 100 µM,> 100 µM,> 100 µM
CSC1=NS(=O)(=O)c2cc(C(=O)NN(C)C(=O)c3cc4c(cc3Cl)SC(SC)=NS4(=O)=O)c(Cl)cc2S1,> 10 µM,> 10 µM,> 10 µM,> 10 µM,> 10 µM,> 10 µM,> 10 µM,> 10 µM,> 10 µM,> 10 µM
CC(=O)N1CCN(C23OC4(N5CCN(C(C)=O)CC5)C5C6CC(C7C6C4C72)C53)CC1 (stereo not given),> 100 µM,> 100 µM,> 100 µM,> 100 µM,> 100 µM,> 100 µM,> 100 µM,> 100 µM,> 100 µM,> 100 µM
C=C(C)C1CC=C(C)C2(C1)OCC(C)(C)C(C)O2 (stereo not given),43.6 µM,46.4 µM,33.4 µM,55.4 µM,40.8 µM,51.2 µM,> 100 µM,48.2 µM,31.8 µM,34.5 µM
CCOc1cc(C2CC(c3ccc(NS(=O)(=O)c4cc([N+](=O)[O-])ccc4C)cc3)=NN2)ccc1O (stereo not given),53.6 µM,> 100 µM,65.2 µM,82.9 µM,84 µM,48.8 µM,> 100 µM,84 µM,53 µM,43 µM
NNc1nncn1N,> 100 µM,> 100 µM,> 100 µM,> 100 µM,> 100 µM,> 100 µM,> 67.3 µM,> 100 µM,> 100 µM,> 100 µM
O=S1(=O)c2ccccc2NC(=S)CC1c1ccccc1 (stereo not given),> 100 µM,> 100 µM,> 100 µM,> 100 µM,> 100 µM,> 100 µM,> 100 µM,> 100 µM,> 100 µM,> 100 µM
CCOC(=O)C(CS)NC(=O)CCCCCCCC(=O)NC(CS)C(=O)OCC (stereo not given),> 100 µM,> 100 µM,> 100 µM,> 100 µM,> 100 µM,> 100 µM,> 100 µM,> 100 µM,> 100 µM,> 100 µM
